The text below walks through data of patent US11375716B2, “Acetyl-CoA carboxylase modulators” (Monsanto Technology LLC, priority 2013, dated 2022).

Like-named read-outs stand apart in the source and are kept apart here.

For one test, the system named is Botrytis cinerea. The test can be described thus: Fungal growth inhibition assay, B. cinerea. It counts as cell-based. The text has this: Spores were isolated from previously sub-cultured plates of Botrytis cinerea, Phytophthora capsici, Fusarium moniliforme, Fusarium viguliforme, Collectotrichum graminicola, and Diplodia maydis. All spores were filtered and collected in a sterile glass bowl to isolate the spores from the mycelia. The isolation and sub-culture plate condition for each pathogen is described below.
Spore isolation for B. cinerea: A 2-3 week old V8 (17%)+CaCO3 (3 g/L)+20 g agar plate was removed from room temperature and the mycelia were treated with 5-10 ml of filter sterilized Triton X 100 (0.05%). The mycelia were scraped to re-suspend the spores. The spores were then collected in a sterile filter bowl containing a fluted piece of filter paper and poured into a conical tube.
After spore isolation, pathogen spores were counted on a hemocytometer to calculate the spores/ml. In 17% V8 liquid media containing 3 g/L CaCO3, isolated spores were diluted to individual concentrations based on the growth curves at 48 hours of each pathogen. […]
In a 96-well plate the spore solution, chemistries, and controls were combined to make the final solution concentrations mentioned above. Upon addition of the chemistry, an OD600 reading was done to assess chemical precipitation. […] Plate readings were repeated at 24 and 48 hrs. […]

The target of test [1] is Ustilago maydis acetyl CoA carboxylase (ACCase) (Ustilago maydis, UniProt A0A0D1DYD5). The test is described as follows: ACCase enzymatic assay (PK/LDH-coupled, NADH OD340). It counts as biochemical. As to the method: Ustilago maydis acetyl CoA carboxylase (ACCase) was cloned, expressed, and purified as described (Weatherly et al, Biochem. J., 2004) and the test compounds were tested in a 96-well plate format. Primary in vitro screening consisted of obtaining dose response data at 100, 33, 10, and 1 μM inhibitor. Actives in the primary screen were re-tested to establish IC50 values.
Ustilago maydis acetyl CoA carboxylase (ACCase), sequence (A0A0D1DYD5 1-2185): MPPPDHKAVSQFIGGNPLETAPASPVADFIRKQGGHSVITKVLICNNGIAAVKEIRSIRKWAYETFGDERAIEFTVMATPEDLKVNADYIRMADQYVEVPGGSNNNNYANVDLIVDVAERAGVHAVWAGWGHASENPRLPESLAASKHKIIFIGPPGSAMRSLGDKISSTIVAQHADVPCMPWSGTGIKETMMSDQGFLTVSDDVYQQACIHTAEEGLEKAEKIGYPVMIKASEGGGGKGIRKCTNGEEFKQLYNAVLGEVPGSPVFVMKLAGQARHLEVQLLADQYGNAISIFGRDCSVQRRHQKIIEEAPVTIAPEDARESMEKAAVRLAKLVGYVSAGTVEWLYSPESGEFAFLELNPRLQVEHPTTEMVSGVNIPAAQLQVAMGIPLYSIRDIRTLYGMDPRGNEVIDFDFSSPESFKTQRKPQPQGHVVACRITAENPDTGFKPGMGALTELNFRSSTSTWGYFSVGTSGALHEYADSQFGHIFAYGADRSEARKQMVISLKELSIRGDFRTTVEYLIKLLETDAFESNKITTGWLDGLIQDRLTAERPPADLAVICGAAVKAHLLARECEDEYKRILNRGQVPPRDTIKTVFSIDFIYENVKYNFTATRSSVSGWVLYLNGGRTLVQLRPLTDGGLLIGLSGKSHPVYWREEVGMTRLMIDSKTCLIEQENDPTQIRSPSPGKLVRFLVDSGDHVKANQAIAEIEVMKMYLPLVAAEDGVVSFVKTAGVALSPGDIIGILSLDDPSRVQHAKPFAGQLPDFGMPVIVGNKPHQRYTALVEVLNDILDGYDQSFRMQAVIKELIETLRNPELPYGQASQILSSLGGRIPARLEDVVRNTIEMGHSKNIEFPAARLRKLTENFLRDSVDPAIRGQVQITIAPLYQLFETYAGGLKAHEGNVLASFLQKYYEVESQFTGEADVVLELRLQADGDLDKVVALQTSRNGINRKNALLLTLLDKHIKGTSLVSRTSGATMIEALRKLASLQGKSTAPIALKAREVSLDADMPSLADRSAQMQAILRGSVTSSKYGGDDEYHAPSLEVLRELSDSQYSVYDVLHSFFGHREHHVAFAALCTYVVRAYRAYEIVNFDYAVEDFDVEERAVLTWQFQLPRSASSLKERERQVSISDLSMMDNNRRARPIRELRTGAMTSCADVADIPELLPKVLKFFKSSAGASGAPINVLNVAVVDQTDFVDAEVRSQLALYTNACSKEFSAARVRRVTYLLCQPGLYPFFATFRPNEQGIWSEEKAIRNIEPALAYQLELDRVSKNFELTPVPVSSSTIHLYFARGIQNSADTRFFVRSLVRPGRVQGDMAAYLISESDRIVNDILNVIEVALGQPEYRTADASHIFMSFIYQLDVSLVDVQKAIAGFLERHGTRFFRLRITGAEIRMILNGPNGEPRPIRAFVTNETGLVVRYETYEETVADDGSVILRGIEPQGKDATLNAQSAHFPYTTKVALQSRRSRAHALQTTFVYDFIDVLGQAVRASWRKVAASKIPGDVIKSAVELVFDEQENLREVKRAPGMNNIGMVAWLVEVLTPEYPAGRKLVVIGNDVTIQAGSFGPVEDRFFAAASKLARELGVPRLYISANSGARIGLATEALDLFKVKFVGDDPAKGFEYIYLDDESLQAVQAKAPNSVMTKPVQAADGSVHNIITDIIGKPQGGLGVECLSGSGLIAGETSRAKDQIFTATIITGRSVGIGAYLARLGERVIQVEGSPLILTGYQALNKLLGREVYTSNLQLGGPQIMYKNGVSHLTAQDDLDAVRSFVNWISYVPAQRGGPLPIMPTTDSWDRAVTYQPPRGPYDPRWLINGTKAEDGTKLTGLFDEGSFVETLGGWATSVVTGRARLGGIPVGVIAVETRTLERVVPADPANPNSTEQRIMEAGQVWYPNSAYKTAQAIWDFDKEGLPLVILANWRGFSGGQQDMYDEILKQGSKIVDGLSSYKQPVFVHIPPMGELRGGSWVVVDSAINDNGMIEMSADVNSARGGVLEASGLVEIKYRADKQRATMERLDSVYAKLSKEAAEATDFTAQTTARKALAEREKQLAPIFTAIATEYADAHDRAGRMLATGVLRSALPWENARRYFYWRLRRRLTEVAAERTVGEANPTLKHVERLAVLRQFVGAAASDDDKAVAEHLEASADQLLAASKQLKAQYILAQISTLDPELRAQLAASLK
Direct detection of the conversion of acetyl CoA to malonyl CoA by ACCase was not feasible, but during this process ATP is converted to ADP which allowed for detection through a standard reaction coupling with ADP recycling to the oxidation of NADH. Thus, ACCase activity was measured via kinetic OD340 measurements of the conversion of NADH to NAD in a coupled reaction involving the conversion of phosphoenolpyruvate (PEP) to lactate.
The complete 200 ul reaction mixture contained 52.5 mM HEPES (pH8), 2.625 mM MgCl2, 1 mM ATP, 0.525 mM DTT, 11 mM NaHCO3, 1% DMSO with or without inhibitor, lx pyruvate kinase/lactate dehydrogenase (PK/LDH), 0.3 mM NADH, 0.5 mM PEP, and 5 μg ACCase. The reactions were incubated at 30° C. for 10 minutes and then initiated by the addition of 0.33 mM acetyl CoA. The initiated reactions were read immediately via plate reader at OD340 and kinetic readings were acquired every 20 s for 15 minutes while keeping the temperature at 30° C.
A slope of the kinetic curve was determined by using the 2 to 7 minute data which was then calculated as percent inhibition relative to the no inhibitor control.
The primary screens were conducted in duplicate and the IC50's conducted in triplicate. Averages were reported along with standard deviation calculation to generate error bars.
Each plate contained its own controls and consisted of a DMSO only control, 5-fold titration series of soraphen from 2 μM to 3.2 nM, and an ADP coupled reaction control.
In order to effectively screen out non-specific modulators of pyruvate kinase and lactate dehydrogenase (the coupled portion of the reaction), a PK/LDH inhibition test was developed. The complete 200 μl reaction mixture contained 52.5 mM HEPES (pH8), 2.625 mM MgCl2, 0.525 mM DTT, 11 mM NaHCO3, 1% DMSO with or without inhibitor, 1× pyruvate kinase/lactate dehydrogenase (PK/LDH), 0.3 mM NADH, and 0.5 mM PEP. The reactions were incubated at 30° C. for 10 minutes and then initiated by the addition of 66 μM ADP. The initiated reactions were read immediately via plate reader at OD340 and kinetic readings were acquired every 20 s for 15 minutes while remaining at 30° C.
A slope of the kinetic curve was determined by using the 2 to 7 minute data which was then calculated as percent inhibition relative to the no inhibitor control. Those compounds which had no significant PK/LDH inhibition at or above the IC50 in the ACCase assay, were considered to be valid modulators of only ACCase.

Setting [2] is: Table 1A, read-out: ACCase Inhibitory Activity IC50.
The mark [3] stands for this setting: Table 1B, racemates and single enantiomers, read-out: ACCase Inhibitory Activity of Racemic Mixtures and Single Enantiomers IC50.

A word on the IC50: it is the concentration needed to halve the response being measured. For “2-((3-cyano-4-(4-methoxyphenyl)-6-(1-oxidothiophen-2-yl)pyridin-2-yl)oxy)-2-phenylacetic acid [Formula Ia-xxviii]”, the “B. cinerea % growth inhibition at 48 hours” value with Botrytis cinerea (2 ppm) was 14%; in the test with Botrytis cinerea (10 ppm) it was 27%. Besides, in test [1] (setting [2]), the IC50 was determined as 196 nM.
As to `N#Cc1c(-c2cccs2)cc(-c2cccs2)nc1SC(C(=O)O)c1ccccc1` (racemic) [Formula Ia-iii, 2-((3-cyano-4,6-di(thiophen-2-yl)pyridin-2-yl)thio)-2-phenylacetic acid], the values for the IC50 in test [1] (setting [2]) and in test [1] (setting [3]) were 616 nM and 439 nM, respectively.
With `COc1ccc(-c2cc(-c3cccs3)nc(SC(C(=O)O)c3ccccc3)c2C#N)cc1` (racemic) [Formula Ia-xiv, 2-((3-cyano-4-(4-methoxyphenyl)-6-(thiophen-2-yl)pyridin-2-yl)thio)-2-phenylacetic acid], the IC50 in test [1] (setting [2]) was 60 nM.
As to `N#Cc1c(C(F)(F)F)cc(-c2cccs2)nc1S[C@H](C(=O)O)c1ccccc1` (single isomer, unassigned) [Formula Ia-ii-e2, 2-((3-cyano-6-(thiophen-2-yl)-4-(trifluoromethyl)pyridin-2-yl)thio)-2-phenylacetic acid], the IC50 in test [1] (setting [3]) came to 1210 nM.
